Values of other authors, collected in patent US20110052727A1, “Anti Influenza Nutritional Supplements” (priority 2009, published 2011).

System: lung-adapted PR-8 virus
Details: mouse, in vivo

SMILES: O=C/C=C/c1ccccc1 [CA, trans-cinnamaldehyde]
- virus yield reduction in bronchoalveolar lavage fluid: 1 log
